Test results from patent publication US12187713B2, “Immunomodulators, compositions and methods thereof” (Betta Pharmaceuticals Co., Ltd, priority 2019, dated 2025).
Where a name gives a salt, the structure may show the parent alone.

The molecules below were run against PD-1/PD-L1 (Homo sapiens (Human), UniProt Q9NZQ7) (assay: PD-1/PD-L1 Binding Assay (Alphascreen)). Settings: numeric values.
In short: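 PD-1/PD-L1 binding detected by anti-6×His acceptor and streptavidin donor beads after 120 min in the dark at 25 °C. Beforehand, the two proteins were incubated 15 min at 25 °C with inhibitor at 0.015–300 nM (1% DMSO). IC50 comes from a log concentration–response curve.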

Sequence of PD-1/PD-L1 (Q9NZQ7 19-238): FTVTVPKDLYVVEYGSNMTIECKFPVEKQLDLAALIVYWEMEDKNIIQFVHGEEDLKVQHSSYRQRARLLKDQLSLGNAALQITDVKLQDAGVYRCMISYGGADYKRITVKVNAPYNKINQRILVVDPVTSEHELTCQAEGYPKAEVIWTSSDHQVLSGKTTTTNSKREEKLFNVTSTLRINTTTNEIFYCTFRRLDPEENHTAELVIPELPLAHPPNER

IC50 [nM]	Structure (SMILES)
7.8	Cc1c(-c2ccc(CN3CCCC3)c(OC(F)(F)F)c2)cccc1-c1cccc(-c2nc3cc(CN4CCC[C@H]4C(=O)O)c(OC(F)F)cc3o2)c1C [Example 232, ((6-(difluoromethoxy)-2-(2,2′-dimethyl-4″- (pyrrolidin-1-ylmethyl)-3″-(trifluoromethoxy)-[1,1′:3′,1″-terphenyl]-3-yl)benzo[d]oxazol-5-yl)methyl)-L-proline]
1.8	COc1cc(-c2cccc(-c3cccc(-c4nc5cc(CN6CCC[C@H]6C(=O)O)c(OC(F)F)cc5o4)c3C)c2C)cc(F)c1CN1CCCC1 [Example 235, ((6-(difluoromethoxy)-2-(3″-fluoro-5″- methoxy-2,2′-dimethyl-4″-(pyrrolidin-1-ylmethyl)-[1,1′:3′,1″-terphenyl]-3-yl)benzo[d]oxazol-5-yl)methyl)-L-proline]
2.3	Cc1c(-c2ccc(CN3CCC(C)C3)c(F)c2)cccc1-c1cccc(-c2nc3cc(CN4CCC[C@H]4C(=O)O)c(OC(F)F)cc3o2)c1C (stereo partly drawn) [Example 238, ((6-(difluoromethoxy)-2-(3″-fluoro-2,2′-dimethyl-4″-((3-methylpyrrolidin-1-yl)methyl)-[1,1′:3′,1″-terphenyl]-3-yl)benzo[d]oxazol-5-yl)methyl)-L-proline]
0.99	Cc1c(-c2ccc(CNCCO)c(F)c2)cccc1-c1cccc(-c2nc3cc(CN4CCC[C@H]4C(=O)O)c(OC(F)F)cc3o2)c1C [Example 239, ((6-(difluoromethoxy)-2-(3″-fluoro-4″-(((2-hydroxyethyl)amino)methyl)-2,2′-dimethyl-[1,1′:3′,1″-terphenyl]-3-yl)benzo[d]oxazol-5-yl)methyl)-L-proline]
5.2	Cc1c(-c2c[nH]c([C@@H]3CCCN3)n2)cccc1-c1cccc(-c2nc3cc(CN4CCC[C@H]4C(=O)O)c(OC(F)F)cc3o2)c1C [Example 247, ((6-(difluoromethoxy)-2-(2,2′-dimethyl-3′-(2-((S)-pyrrolidin-2-yl)-1H-imidazol-4-yl)-[1,1′-biphenyl]-3-yl)benzo[d]oxazol-5-yl)methyl)-L-proline]
4.4	COC(=O)N[C@H](C(=O)N[C@H]1CCN(Cc2ccc(-c3cccc(-c4cccc(-c5nc6cc(CN7CCC[C@H]7C(=O)O)c(OC(F)F)cc6o5)c4C)c3C)cc2)C1)C(C)C [Example 257, ((6-(difluoromethoxy)-2-(4″-(((S)-3-((S)-2-((methoxycarbonyl)amino)-3-methylbutanamido)pyrrolidin-1-yl)methyl)-2,2′-dimethyl-[1,1′:3′,1″-terphenyl]-3-yl)benzo[d]oxazol-5-yl)methyl)-L-proline]

Second part, the molecule before the results:

Structure (SMILES)	IC50 [nM]
Cc1c(-c2ccc(CN3CCCC3)c(Cl)c2)cccc1-c1cccc(-c2nc3cc(CN4CCC[C@H]4C(=O)O)c(OC(F)F)cc3o2)c1C [Example 229, ((2-(3″-chloro-2,2′-dimethyl-4″-(pyrrolidin-1-ylmethyl)-[1,1′:3′,1″-terphenyl]-3-yl)-6-(difluoromethoxy)benzo[d]oxazol-5-yl)methyl)-L-proline]	6.9
Cc1cc(-c2cccc(-c3cccc(-c4nc5cc(CN6CCC[C@H]6C(=O)O)c(OC(F)F)cc5o4)c3C)c2C)ccc1CN1CCCC1 [Example 230, ((6-(difluoromethoxy)-2-(2,2′,3″-trimethyl-4″- (pyrrolidin-1-ylmethyl)-[1,1′:3′,1″-terphenyl]-3-yl)benzo[d]oxazol-5-yl)methyl)-L-proline]	1.5
Cc1cc(-c2cccc(-c3cccc(-c4nc5cc(CN6CCC[C@H]6C(=O)O)c(OC(F)F)cc5o4)c3C)c2C)cc(C)c1CN1CCCC1 [Example 234, ((6-(difluoromethoxy)-2-(2,2′,3″,5″-tetramethyl-4″-(pyrrolidin-1-ylmethyl)-[1,1′:3′,1″- terphenyl]-3-yl)benzo[d]oxazol-5-yl)methyl)-L-proline]	0.52
Cc1c(-c2ccc(CN3CCCC3)c(C(=O)O)c2)cccc1-c1cccc(-c2nc3cc(CN4CCC[C@H]4C(=O)O)c(OC(F)F)cc3o2)c1C [Example 236, ((2-(3″-carboxy-2,2′-dimethyl-4″-(pyrrolidin-1-ylmethyl)-[1,1′:3′,1″-terphenyl]-3-yl)-6-(difluoromethoxy)benzo[d]oxazol-5-yl)methyl)-L-proline]	290
COc1cc(-c2cccc(-c3cccc(-c4nc5cc(CN6CCC[C@H]6C(=O)O)c(OC(F)F)cc5o4)c3C)c2C)cc(OC)c1CN1CCCC1 [Example 254, ((6-(difluoromethoxy)-2-(3″,5″-dimethoxy-2,2′-dimethyl-4″-(pyrrolidin-1-ylmethyl)-[1,1′:3′,1″- terphenyl]-3-yl)benzo[d]oxazol-5-yl)methyl)-L-proline hydrochloride]	16
Cc1c(-c2ccc(C3CCCN3)cc2)cccc1-c1cccc(-c2nc3cc(CN4CCC[C@H]4C(=O)O)c(OC(F)F)cc3o2)c1C (stereo partly drawn) [Example 255, ((6-(difluoromethoxy)-2-(2,2′-dimethyl-4″- (pyrrolidin-2-yl)-[1,1′:3′,1″-terphenyl]-3-yl)benzo[d]oxazol-5-yl)methyl)-L-proline]	2.3
Cc1c(-c2ccc(CN3CCCC3)nc2)cccc1-c1cccc(-c2nc3cc(CN4CCC[C@H]4C(=O)O)c(OC(F)F)cc3o2)c1C [Example 263, ((6-(difluoromethoxy)-2-(2,2′-dimethyl-3′-(6-(pyrrolidin-1-ylmethyl)pyridin-3-yl)-[1,1′-biphenyl]-3-yl)benzo[d]oxazol-5-yl)methyl)-L-proline]	0.98

Same assay, conditions: range symbols

IC50 [nM]	Structure (SMILES)
0.1 to 5	Cc1c(-c2nc3cc(CN4CC[C@H](C(=O)O)C4)c(OC(F)F)cc3o2)cccc1-c1cccc(-c2nc3cc(CN4CC[C@H](C)C4)cc(C#N)c3o2)c1C [Example 259, (S)-1-((2-(3′-(7-cyano-5-(((S)-3-methylpyrrolidin-1-yl)methyl)benzo[d]oxazol-2-yl)-2,2′-dimethyl-[1,1′-biphenyl]-3-yl)-6-(difluoromethoxy)benzo[d]oxazol-5-yl)methyl)pyrrolidine-3-carboxylic acid]
5 to 50	Cc1c(-c2nc3cc(CN4CCC[C@H]4C(=O)O)c(OC(F)F)cc3o2)cccc1-c1cccc(-c2cnc(CN3CCCC3)cc2F)c1C [Example 262, ((6-(difluoromethoxy)-2-(3′-(4-fluoro-6-(pyrrolidin-1-ylmethyl)pyridin-3-yl)-2,2′-dimethyl-[1,1′-biphenyl]-3-yl)benzo[d]oxazol-5-yl)methyl)-L-proline]

The next lines start with the molecule.

Structure (SMILES)	IC50 [nM]
Cc1c(-c2ccc(CN3CC[C@H](CO)C3)c(C#N)c2)cccc1-c1cccc(-c2nc3cc(CN4CCC[C@H]4C(=O)O)c(OC(F)F)cc3o2)c1C [Example 240, ((2-(3″-cyano-4″-(((S)-3-(hydroxymethyl)pyrrolidin-1-yl)methyl)-2,2′-dimethyl-[l,1′:3′,1″-terphenyl]-3-yl)-6-(difluoromethoxy)benzo[d]oxazol-5-yl)methyl)-L-proline]	5 to 50
Cc1c(-c2ccc(CN3CCCC3)c(OCCc3ccc(F)cc3)c2)cccc1-c1cccc(-c2nc3cc(CN4CCC[C@H]4C(=O)O)c(OC(F)F)cc3o2)c1C [Example 249, ((6-(difluoromethoxy)-2-(3″-(4-fluorophenethoxy)-2,2′-dimethyl-4″-(pyrrolidin-1-ylmethyl)-[1,1′:3′,1″-terphenyl]-3-yl)benzo[d]oxazol-5-yl)methyl)proline]	5 to 50
Cc1c(-c2ccc(CN3CCCC3)c(OCC3CC3)c2)cccc1-c1cccc(-c2nc3cc(CN4CCC[C@H]4C(=O)O)c(OC(F)F)cc3o2)c1C [Example 250, ((2-(3″-(cyclopropylmethoxy)-2,2′-dimethyl-4″- (pyrrolidin-1-ylmethyl)-[1,1′:3′,1″-terphenyl]-3-yl)-6-(difluoromethoxy)benzo[d]oxazol-5-yl)methyl)proline]	0.1 to 5
Cc1c(-c2ccc(CN3CC[C@@H](c4nnn[nH]4)C3)c(F)c2)cccc1-c1cccc(-c2nc3cc(CN4CCC[C@H]4C(=O)O)c(OC(F)F)cc3o2)c1C [Example 251, ((2-(4″-(((R)-3-(1H-tetrazol-5-yl)pyrrolidin-1-yl)methyl)-3″-fluoro-2,2′-dimethyl-[1,1′:3′,1″- terphenyl]-3-yl)-6-(difluoromethoxy)benzo[d]oxazol-5-yl)methyl)proline]	5 to 50
Cc1c(-c2ccc([C@H](N)C(=O)O)cc2)cccc1-c1cccc(-c2nc3cc(CN4CCC[C@H]4C(=O)O)c(OC(F)F)cc3o2)c1C [Example 256, ((2-(4″-((S)-amino(carboxy)methyl)-2,2′-dimethyl-[1,1′:3′,1″-terphenyl]-3-yl)-6-(difluoromethoxy)benzo[d]oxazol-5-yl)methyl)-L-proline]	> 50
Cc1c(-c2ccc(CN3Cc4ccc(NC(N)=O)cc4C3)c(F)c2)cccc1-c1cccc(-c2nc3cc(CN4CCC[C@H]4C(=O)O)c(OC(F)F)cc3o2)c1C [Example 258, ((6-(difluoromethoxy)-2-(3″-fluoro-2,2′-dimethyl-4″-((5-ureidoisoindolin-2-yl)methyl)-[1,1′:3′,1″-terphenyl]-3-yl)benzo[d]oxazol-5-yl)methyl)-L-proline]	5 to 50
Cc1c(-c2ccc(CN3CCC(NC(N)=O)C3)c(F)c2)cccc1-c1cccc(-c2nc3cc(CN4CCC[C@H]4C(=O)O)c(OC(F)F)cc3o2)c1C (stereo partly drawn) [Example 260, ((6-(difluoromethoxy)-2-(3″-fluoro-2,2′-dimethyl-4″-((3-ureidopyrrolidin-1-yl)methyl)-[1,1′:3′,1″-terphenyl]-3-yl)benzo[d]oxazol-5-yl)methyl)-L-proline]	5 to 50
Cc1c(-c2nc3cc(CN4CCC[C@H]4C(=O)O)c(OC(F)F)cc3o2)cccc1-c1cccc(-c2nc3cc(CN4CC[C@H](Cl)C4)cc(C#N)c3o2)c1C [Example 261, ((2-(3′-(5-(((S)-3-chloropyrrolidin-1-yl)methyl)-7-cyanobenzo [d]oxazol-2-yl)-2,2′-dimethyl-[1,1′-biphenyl]-3-yl)-6-(difluoromethoxy)benzo[d]oxazol-5-yl)methyl)-L-proline]	0.1 to 5
Cc1c(-c2ccc(CN3CCCC3)cn2)cccc1-c1cccc(-c2nc3cc(CN4CCC[C@H]4C(=O)O)c(OC(F)F)cc3o2)c1C [Example 264, ((6-(difluoromethoxy)-2-(2,2′-dimethyl-3′-(5-(pyrrolidin-1-ylmethyl)pyridin-2-yl)-[1,1′-biphenyl]-3-yl)benzo[d]oxazol-5-yl)methyl)-L-proline]	0.1 to 5
